According to patent publication US7531520B2, “Drug and food or drink for improving pancreatic functions” (Morinaga Milk Industry Co., Ltd., priority 2005, dated 2009):
Where two headings read alike, the source gives them in different places.

What was measured:
db/db mice [1] = test: Hyperglycemia improving effect in type-II diabetes model mice (Reference Example 1); type: in vivo; details: male db/db mice, oral 1 mL of 15 μg/mL once a day
Method: The final DMSO concentration was adjusted to 0.2%. […] Fasting blood glucose levels and random blood glucose levels were measured over time using Antisense II (Bayer-Sankyo Co., Ltd.). The fasting blood glucose levels were measured after 15 hours of fasting.
Changes over time in random blood glucose levels and fasting blood glucose levels during the test sample administration period are shown in FIGS. 3 and 4.

db/db mice [2] = test: Pancreatic tissue protecting action, Langerhans islets in pancreatic sections (Test Example 2); type: in vivo
Method: The final DMSO concentration was adjusted to 0.2%. […] On the 43rd day of the continuous administration, the pancreas was extracted, divided into three portions of upstream, midstream and downstream from the duodenum side, and fixed with a formalin solution, and then paraffin blocks were prepared in a conventional manner. Section slides were prepared from the paraffin blocks, and subjected to hematoxylin-eosin staining. The numbers of Langerhans islets existing on the sections of the 3 position of the pancreas, and area of Langerhans islet having the maximum area on each section were measured by using an ocular micrometer on a microscope (“ECLIPSE E600”, NIKON CORP.).

db/db mice [3] = tested on: db/db mice
Method: This test was performed in order to evaluate the pancreatic endocrine gland cell function (insulin production ability) protecting action of 3-O-β-D-glucopyranosyl-4-methyl-ergost-7-en-3-ol by using db/db mice known as a model animal of pancreatic hypofunction or pancreatic tissue dysfunction.
In this test, 6-week old male db/db mice (purchased from Clea Japan, Inc.) were used. These mice were divided into groups, each consisting of 7 animals. Each test sample was dissolved in DMSO, and the concentration was adjusted to 0.1 or 1 μg/mL with physiological saline. The final DMSO concentration was adjusted to 0.2%. The model mice were orally administered with 1 mL of the test sample once a day everyday for 42 days with a sonde. The serum insulin level was measured on the 43rd day of the continuous administration by using Lbis insulin mouse ELISA kit (Shibayagi Co., Ltd).

[4] = oral 1 μg once a day for 42 days, pancreatic sections

CC1C(O[C@@H]2O[C@H](CO)[C@@H](O)[C@H](O)[C@H]2O)CC[C@@]2(C)C1CC=C1[C@@H]3CC[C@H]([C@H](C)CC[C@H](C)C(C)C)[C@@]3(C)CC[C@@H]12 (stereo partly drawn) [Test sample, 3-O-β-D-glucopyranosyl-4-methyl-ergost-7-en-3-ol]
Changes over time in random blood glucose levels (db/db mice [1]; FIG. 3, versus negative sample): effect of suppressing the increases in blood glucose levels was clearly observed | Changes over time in fasting blood glucose levels (db/db mice [1]; after 15 hours of fasting, FIG. 4, versus negative sample): effect of suppressing the increases in blood glucose levels was clearly observed | Maximum areas of Langerhans islets relative to that observed in the negative test (db/db mice [2]; 1 μg, 43rd day): 3.6 times | Number of Langerhans islets relative to negative sample-administered mice (db/db mice [2]; 1 μg, 43rd day): 188% | Maximum area of Langerhans islets on 43rd day of administration (db/db mice [2]; [4]): 160.0 ± 116.7 × 10^3 (μm^2) | The numbers of Langerhans islets in sections on 43rd day of administration (db/db mice [2]; [4]): 75.7 ± 24.7 piece | Effect on serum insulin level (pancreatic function protecting effect) (db/db mice [3]; 0.1 μg/animal, 43rd day): any significant effect was not observed | Serum insulin level relative to that observed in the negative test (db/db mice [3]; 1 μg/animal, 43rd day): 216% | Serum insulin levels on 43rd day of administration (db/db mice [3]; oral 0.1 μg/animal once a day for 42 days): 2.24 ± 0.66 ng/mL | Serum insulin levels on 43rd day of administration (db/db mice [3]; oral 1 μg/animal once a day for 42 days): 4.29 ± 0.71 ng/mL
